Reference: patent EP3095872A1, “A METHOD OF PRODUCING ALPHA AMINO ACIDS” (Evonik Degussa GmbH, priority 2015, dated 2016)
Read-outs that look alike come from different tables or passages of the source.

Key:
[1] = system: P450Cla; test: conversion of fatty acid substrates 1a-d with P450Cla, oxidant H2O2; type: biochemical; conditions: 3 µM P450Cla, 24 h, RT, values marked a based on substrate depletion
Description: P450Cla was ordered as synthetic gene and cloned into the pET28a expression vector. […] The dialysis buffer was supplemented with 300 mM NaCl to prevent precipitation of P450Cla. Next, hydroxylation of fatty acid substrates 1a-d (scheme 2) was performed employing purified P450Cla and P450BSß. The oxidant source was varied in case of P450Cla while only H2O2 was used with P450BSß.
Reaction conditions for P450Cla: 3µM P450Cla; Tris-HCl (pH 7.5; 0.1 M); 2.5 to 5 % EtOH (cosolvent for the substrate).
All reactions were performed in closed glass vials for 24 h reaction time at RT with 170 rpm shaking. The reactions were quenched by addition of 100 µl 5 N HCl. Extractions were performed with 500 µl EtOAc containing 0.1 % 1-decanol as internal standard. After drying over Na2SO4, derivatization of acids to corresponding methyl esters was realized by mixing 150 µl of organic phase with 90µl of MeOH prior to supplementation of 20 µl of TMSCHN2 for esterification. Samples were analyzed by GC-FID and GC-MS. Commercial standards of 2-hydroxycaproic acid (2a), 2-hydroxyoctanoic acid (2b) and 2-oxooctanoic acid (4b) were used as references. Calibration curves were obtained from standards 1a-d and 2a-b prepared identically to the reaction mixtures (5 concentration points from 10 µM to 1 mM).

[2] = system: P450Cla; test: alpha-hydroxylation of selected fatty acids, catalytic and kinetic characterization of P450Cla; type: biochemical; conditions: for specific activity U mg^-1: P450Cla 48 kDa, values only relevant at initial rate; for Coupling*: mol product per mol H2O2
Description: Hydroxylation of selected fatty acids was carried out using a fresh preparation of purified P450Cla. P450Cla was characterised for key catalytic parameters specific activities were determined for three selected substrates as shown in Table 1. Table 1: Catalytic and kinetic characterization of P450Cla for conversion of 10 mM of selected fatty acids. All reactions were performed in triplicate.
Conditions: 0.5 µM P450Cla used in reactions with C10; 1 µM P450Cla used in reactions with C8 and C6; All reactions were performed in Tris-HCl (pH 7.5, 0.1 M) at RT and 170 rpm shaking in closed glass vials; *molProduct^-1 molH2O2^-1; ^§molecular weight of P450Cla is 48 kDa, values only relevant at initial rate.

[3] = system: P450Cla, L- and D-HICDH, leucine-DH; test: three-step one-pot cascade of fatty acid to amino acid (TLC ninhydrin, GC-MS); type: biochemical
Description: Hydroxylation of all four fatty acid substrates (C4, C6, C8, C10) was performed as described above using 3 µM P450Cla, 10 mM substrate and 2.5 % EtOH in a final volume of 1 ml Tris-HCl (pH 7.5, 0.1 M). H2O2 was supplemented every 30 min (23 times; 36.8 mM total). After 24 h, the hydroxylation reaction (step 1) was stopped by adding 1200 U catalase (1 mg), 20µl of (NH4)2SO4(2.5 M stock) and the pH was adjusted to 8.5 using 1 M NaOH. For step 2 and 3 of the cascade, Land D-HICDH (0.25 mg), 10 mM NAD+ and 5 µl purified leucine-DH were added to the reaction mixture. After 24 h reaction time, 2 µl of the reaction volume were spotted on a TLC plate along with a commercial standard of L-norleucine as reference material (positive control). After elution of products acetic acid/H2O/n-butanol as mobile phase (1:1:3), the plate was stained with ninhydrin and heated gently for colour development. […] The following control reactions were performed to confirm the overall success of the two step cascade leaving one of the following components out of the reaction: 1) P450; 2) L- or D-HICDH; 3) Leu-DH; 4) fatty acid substrate; 5) H2O2; 6) (NH4)2SO4; 7) NAD+. The reaction samples were analyzed by TLC as shown before, but formation of norleucine could not be detected. […]

[4] = system: leucine-DH; test: deamination of L-norleucine and L-leucine using leucine-DH, NADH formation at 340 nm; type: biochemical; conditions: 10 mM substrate; 10 mM NAD+; pH 8.5; UV absorption at 340 nm
Description: Deamination of L-norleucine and L-leucine (both commercial standards) was performed using a purified leucine-DH. Reactions contained 10 mM substrate, 10 mM NAD+ and 5 µl leucine-DH in a final volume of 1 ml Tris-HCl (pH 8.5, 0.1 M). Oxidation of the amino acids was successful as indicated by increasing UV absorption at 340 nm, corresponding to (concomitant) formation of NADH (Figure 3).

[5] = system: L- and D-HICDH; test: oxidation of alpha-hydroxy acids with L- and D-HICDH, NADH formation at 340 nm; type: biochemical; conditions: for NADH concentration: after 1 min reaction time, estimated (Figure 2)
Description: A modified protocol for oxidation of 2-hydroxy acids with L-and D-HICDH was established allowing oxidation of 2-hydroxyhexanoic acid and 2-hydroxyoctanoic acid (both commercial standards) that are produced in step 1 of the cascade (Scheme 1). Reactions contained 1 or 10 mM substrate, 1 % DMSO, 10 mM NAD+ and 0.25 mg of L- and D-HICDH (cell free freeze-dried lysates) in a final volume of 1 ml Tris-HCl (pH 8.5, 0.1 M). Oxidation of the α-hydroxy acid substrates was successful as indicated by increasing UV absorption at 340 nm, corresponding to (concomitant) formation of NADH (Figure 2).

[6] = target: YcnD (Bacillus subtilis, UniProt P94424); test: oxidation/dehydrogenation of alpha-hydroxy acids 2a-b, YcnD alone; conditions: 10 mM substrate; YcnD without HICDH; KPi pH 7.5; RT, 24 h
[7] = system: D/L-HICDH; test: oxidation/dehydrogenation of alpha-hydroxy acids 2a-b using D/L-HICDH; type: biochemical; conditions: 10 mM substrate; KPi pH 7.5; 1 mM NAD+ (also 6.75 mM); RT, 24 h
[8] = system: D/L-HICDH-YcnD; test: oxidation/dehydrogenation of alpha-hydroxy acids 2a-b using D/L-HICDH with NADH-oxidase YcnD; type: biochemical; conditions: 10 mM substrate; with YcnD and catalase; KPi pH 7.5; 1 mM NAD+ (also 6.75 mM); RT, 24 h

Chain of YcnD (P94424 whole entry): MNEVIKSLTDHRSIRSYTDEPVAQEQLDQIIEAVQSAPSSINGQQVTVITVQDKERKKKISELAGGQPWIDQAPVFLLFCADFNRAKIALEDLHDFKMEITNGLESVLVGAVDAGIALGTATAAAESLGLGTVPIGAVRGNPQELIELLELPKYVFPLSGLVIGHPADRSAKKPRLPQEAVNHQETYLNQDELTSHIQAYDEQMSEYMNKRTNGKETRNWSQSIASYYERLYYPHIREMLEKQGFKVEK

Structure (SMILES): CCCCCCCC(=O)O [Substrate 1b, octanoic acid]
- Conversion ([1]; 5 mM substrate, H2O2 9.6 mM total): 96%
- Conversion ([1]; 10 mM substrate, H2O2 19.2 mM total): >99%

Structure (SMILES): CCCCCC(=O)O [Substrate C6, hexanoic acid]
- Selectivity [% α-OH] [2]: > 90%
- specific activity [2]: ≥ 1 U mg^-1
- Selectivity [% α-OH] ([2]; 5 min, H2O2 0.8 mM): >95%
- TON ([2]; 5 min, H2O2 0.8 mM): 139 min⁻¹
- TTN ([2]; 5 min, H2O2 0.8 mM): 695
- specific activity U mg^-1 ([2]; 5 min, H2O2 0.8 mM): 2.9 U mg^-1
- Coupling* ([2]; 5 min, H2O2 0.8 mM): 87%
- Selectivity [% α-OH] ([2]; 15 min, H2O2 0.8 mM): >95%
- TON ([2]; 15 min, H2O2 0.8 mM): 47 min⁻¹
- TTN ([2]; 15 min, H2O2 0.8 mM): 706
- specific activity U mg^-1 ([2]; 15 min, H2O2 0.8 mM): 1.0 U mg^-1
- Coupling* ([2]; 15 min, H2O2 0.8 mM): 88%
- Selectivity [% α-OH] ([2]; 30 min, H2O2 1.6 mM): >95%
- TON ([2]; 30 min, H2O2 1.6 mM): 29 min⁻¹
- TTN ([2]; 30 min, H2O2 1.6 mM): 880
- specific activity U mg^-1 ([2]; 30 min, H2O2 1.6 mM): 0.6 U mg^-1
- Coupling* ([2]; 30 min, H2O2 1.6 mM): 55%
- production of norleucine (GC-MS after derivatization) ([3]; 10 mM hexanoic acid, Figure 4): successful production of norleucine
- formation of norleucine / amino acid (TLC, ninhydrin staining) ([3]; 10 mM substrate, step 1 24 h, steps 2 and 3 24 h, one pot): distinct red spot

Structure (SMILES): CC(C)C[C@H](N)C(=O)O [L-leucine]
- Oxidation of the amino acids [4]: successful

Structure (SMILES): CCCC[C@H](N)C(=O)O [L-norleucine]
- Oxidation of the amino acids [4]: successful

Structure (SMILES): CCCCCCC(O)C(=O)O (centres unmarked) [Substrate 2b, 2-hydroxyoctanoic acid]
- NADH concentration ([5]; 1 mM substrate): 41 µM
- NADH concentration ([5]; 10 mM substrate): 126 µM
- Oxidation of the α-hydroxy acid substrates ([5]; 1 or 10 mM substrate, 10 mM NAD+, pH 8.5, UV absorption at 340 nm): successful
- α-Ketoacid 4a/b detected [Y/N] [6]: No
- α-Ketoacid 4a/b detected [Y/N] [7]: No
- α-Ketoacid 4a/b detected [Y/N] [8]: Yes (traces)
